Reference: US20250194663A1, “ORAL POUCH PRODUCT CONTAINING AMINO ACID OR SALT THEREOF” (Japan Tobacco Inc., priority 2022, published 2025)

How the values were obtained:
[1] = cited from earlier work; for pI: amino acid isoelectric point; for pKa (—COOH group) / pKa (—NH3 group): amino acid
[2] = Spectrocolorimeter (CM-5) measurement of samples before and after adsorption and desorption measurement; format: physicochemical
Protocol: Changes in the samples between before and after the measurement of the adsorption and desorption isotherms were measured using Konica Minolta, Inc.'s spectrocolorimeter (CM-5). The measurement conditions were reflection measurement and the SCI method, and the measurements were taken with the observation window of a 3-mm φ target mask covered with the glass container after the adsorption and desorption measurement. A blank tube, with no sample placed in it, was also subjected to the measurement, through which a measurement in a transparent state was determined. The measurements are converted values for a 10° field of view and a D65 light source.

[3] = for State of sample after the end of the measurement: FIG. 2, after adsorption and desorption measurement; for Deliquescence: conclusion from isotherm and appearance; for Appearance after storage: tubes tightly closed, stored 9 days at normal temperature after measurement
Protocol: For the measurement, MicrotracBEL (MicrotracBEL Corporation) BELSORP MAX III was used. As a pretreatment of samples, the samples were vacuum-dried at 105° C. until the leakage was 1 Pa/min or less.
The measurement conditions were set as follows. • At relative pressures (humidity levels) from 0.025 to 0.3: measurements are taken at relative pressure intervals of 0.025 • At relative pressures (humidity levels) beyond 0.3 to 0.95: measurements are taken at relative pressure intervals of 0.05
After reaching a relative pressure of 0.95: measurements are taken at equal relative pressure intervals until a relative pressure of 0.1 (For TSP, however, the relative pressure limit was set to approximately 0.5 because measurement accuracy is reduced due to a prolonged measurement time.)
The equilibration conditions were that at relative pressures of 0.9 or lower, pressure changes should be 0.3% or smaller variations over 300 sec, and that at relative pressures of 0.9 or higher, pressure changes should be 0.3 Pa, as a pressure value, or smaller variations over 300 sec.

[4] = after adsorption and desorption measurement
[5] = before adsorption and desorption measurement
[6] = 9 days after adsorption and desorption measurement

Compound: N[C@@H](Cc1c[nH]c2ccccc12)C(=O)O [Tryptophan]
- pI [1]: 5.89
- pKa (—COOH group) [1]: 2.83

Compound: O=P([O-])([O-])[O-].[Na+].[Na+].[Na+] [TSP, trisodium phosphate, reference compound]
- L* (D65) [2, 4]: 92.4
- a* (D65) [2, 4]: −0.1
- b* (D65) [2, 4]: 0.1
- L* (D65) [2, 5]: 98.5
- a* (D65) [2, 5]: 0.0
- b* (D65) [2, 5]: 0.5

Compound: O=C(O)[C@@H]1C[C@@H](O)CN1 [Hydroxyproline]
- pKa (—COOH group) [1]: 1.82
- pKa (—NH3 group) [1]: 9.65

Compound: N[C@@H](CS)C(=O)O [Cysteine]
- pI [1]: 5.07
- pKa (—NH3 group) [1]: 10.28

Compound: NCCCC[C@H](N)C(=O)O [Lysine]
- pI [1]: 9.74
- pKa (—COOH group) [1]: 2.18

Compound: N[C@@H](CCC(=O)O)C(=O)O [Glutamic acid]
- pI [1]: 3.22
- L* (D65) [2, 6]: 53.6
- a* (D65) [2, 6]: −0.7

Compound: N=C(N)NCCC[C@H](N)C(=O)O [Arginine, arginine]
- pI [1]: 10.76
- pKa (—COOH group) [1]: 2.17
- L* (D65) [2, 4]: 94.8
- a* (D65) [2, 4]: −0.2
- b* (D65) [2, 4]: 0.1
- L* (D65) [2, 5]: 99.0
- a* (D65) [2, 5]: −0.1
- b* (D65) [2, 5]: 0.4

Compound: N[C@@H](Cc1ccc(O)cc1)C(=O)O [Tyrosine]
- pI [1]: 5.66

Compound: NCC(=O)O [Glycine]
- pI [1]: 5.97

Compound: CC[C@H](C)[C@H](N)C(=O)O [Isoleucine]
- pI [1]: 6.02
- pKa (—COOH group) [1]: 2.36

Compound: N[C@@H](CO)C(=O)O [Serine]
- pI [1]: 5.68

Compound: N[C@@H](CCC(=O)O)C(=O)[O-].[Na+] [MSG, Na glutamate]
- State of sample after the end of the measurement [3]: transitioned to a transparent liquid state
- Deliquescence [3]: have deliquescence
- Appearance after storage [3]: became a whitened film form
- L* (D65) [2, 4]: 33.7
- a* (D65) [2, 4]: −0.1
- b* (D65) [2, 4]: −0.2
- L* (D65) [2, 5]: 84.8
- a* (D65) [2, 5]: −0.2
- b* (D65) [2, 5]: 1.1

Compound: CSCC[C@H](N)C(=O)O [Methionine]
- pI [1]: 5.74
- pKa (—COOH group) [1]: 2.28
- pKa (—NH3 group) [1]: 9.21

Compound: CC(C)[C@H](N)C(=O)O [Valine]
- pI [1]: 5.96
- pKa (—NH3 group) [1]: 9.62

Compound: N[C@@H](CC(=O)O)C(=O)O [Aspartic acid]
- pI [1]: 2.77

Compound: N[C@@H](Cc1ccccc1)C(=O)O [Phenylalanine]
- pI [1]: 5.48
- pKa (—COOH group) [1]: 1.83
- pKa (—NH3 group) [1]: 9.13

Compound: O=C(O)[C@@H]1CCCN1 [Proline]
- pI [1]: 6.3

Compound: O=C1CC[C@@H](C(=O)O)N1 [Pyroglutamic acid]
- pI [1]: 5.68

Compound: C[C@H](N)C(=O)O [Alanine]
- pI [1]: 6
- pKa (—COOH group) [1]: 2.34

Compound: NC(=O)C[C@H](N)C(=O)O [Asparagine]
- pI [1]: 5.41
- pKa (—COOH group) [1]: 2.02

Compound: NCCCC(=O)O [GABA, γ-aminobutyric acid]
- State of sample after the end of the measurement [3]: transitioned to a transparent liquid state
- Deliquescence [3]: have deliquescence
- Appearance after storage [3]: maintained the degree of transparency
- pI [1]: 7.3
- pKa (—COOH group) [1]: 4.23
- L* (D65) [2, 6]: 33.1
- a* (D65) [2, 6]: −0.3
- L* (D65) [2, 4]: 26.5
- a* (D65) [2, 4]: −0.3
- b* (D65) [2, 4]: −0.9
- L* (D65) [2, 5]: 87.1
- a* (D65) [2, 5]: −0.1

Compound: N[C@@H](Cc1c[nH]cn1)C(=O)O [Histidine]
- pI [1]: 7.59

Compound: C[C@@H](O)[C@H](N)C(=O)O [Threonine]
- pI [1]: 5.6
- pKa (—COOH group) [1]: 2.09
